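Where inhibition never reached the appropriate level, the endpoint shown equals the highest concentration tested. Otherwise, values were interpolated linearly from a five-concentration, 48-hour dose response in 96-well plates. At the GI50, growth is halved.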 Calls of active or inactive are those of the source. No stated cut-off is given here; in the data, active = GI50 up to about 1.1 µM and inactive = higher.
Columns and labels:
Test in all cases: inhibition of tumour cell growth, NCI panel, 48 h
NCI-H460 = system: NCI-H460
A498 = system: A498
T47D = system: T47D
SF-268 = system: SF-268
CCRF-CEM = system: CCRF-CEM
OVCAR-4 = system: OVCAR-4
IGROV-1 = system: IGROV-1
MDA-N = system: MDA-N
NCI-H226 = system: NCI-H226
LOX IMVI = system: LOX IMVI
HT-29 = system: HT-29
NCI/ADR-RES = system: NCI/ADR-RES
KM12 = system: KM12
UACC-62 = system: UACC-62
BT-549 = system: BT-549
Hs-578T = system: Hs-578T
COLO 205 = system: COLO 205
Malme-3M = system: Malme-3M
NCI-H522 = system: NCI-H522
K562 = system: K562
SR = system: SR
EKVX = system: EKVX
RPMI-8226 = system: RPMI-8226
HCT-116 = system: HCT-116
SN12C = system: SN12C
SK-OV-3 = system: SK-OV-3
MOLT-4 = system: MOLT-4
SF-539 = system: SF-539
MDA-MB-231 = system: MDA-MB-231
SF-295 = system: SF-295
SNB-19 = system: SNB-19
U-251 = system: U-251
SK-MEL-5 = system: SK-MEL-5
HL-60 = system: HL-60
HOP-92 = system: HOP-92
MDA-MB-435 = system: MDA-MB-435
OVCAR-5 = system: OVCAR-5
HCT-15 = system: HCT-15
SW-620 = system: SW-620
UACC-257 = system: UACC-257
PC-3 = system: PC-3
MCF7 = system: MCF7
HOP-62 = system: HOP-62
ACHN = system: ACHN
OVCAR-8 = system: OVCAR-8
786-0 = system: 786-0
UO-31 = system: UO-31
M14 = system: M14
A549 = system: A549
CAKI-1 = system: CAKI-1
NCI-H23 = system: NCI-H23
OVCAR-3 = system: OVCAR-3
RXF 393 = system: RXF 393
SK-MEL-2 = system: SK-MEL-2
TK-10 = system: TK-10
DU-145 = system: DU-145
HCC 2998 = system: HCC 2998

Structure (SMILES): COc1ccc2c3c(c4cc(OC)c(OC)cc4c2c1)CN1CCC[C@H]1[C@@H]3O [TYLOPHORININE]
- GI50 (NCI-H460): < 47.4 nM (active)
- GI50 (A498): < 49.4 nM (active)
- GI50 (T47D): < 40.4 nM (active)
- GI50 (SF-268): < 45.3 nM (active)
- GI50 (CCRF-CEM): < 35.9 nM (active)
- GI50 (OVCAR-4): 224 nM (active)
- GI50 (IGROV-1): < 50.8 nM (active)
- GI50 (MDA-N): < 40.4 nM (active)
- GI50 (NCI-H226): 270 nM (active)
- GI50 (LOX IMVI): < 10 nM (active)
- GI50 (HT-29): < 28.9 nM (active)
- GI50 (NCI/ADR-RES): 360 nM (active)
- GI50 (KM12): < 37.1 nM (active)
- GI50 (UACC-62): < 48.2 nM (active)
- GI50 (BT-549): 493 nM (active)
- GI50 (Hs-578T): < 44.1 nM (active)
- GI50 (COLO 205): 39 nM (active)
- GI50 (Malme-3M): 249 nM (active)
- GI50 (NCI-H522): 290 nM (active)
- GI50 (K562): 42.2 nM (active)
- GI50 (SR): < 44.3 nM (active)
- GI50 (EKVX): < 10 nM (active)
- GI50 (RPMI-8226): 67.6 nM (active)
- GI50 (HCT-116): < 44.5 nM (active)
- GI50 (SN12C): < 20.1 nM (active)
- GI50 (SK-OV-3): 73.3 nM (active)
- GI50 (MOLT-4): < 31.8 nM (active)
- GI50 (SF-539): 253 nM (active)
- GI50 (MDA-MB-231): < 48.9 nM (active)
- GI50 (SF-295): 50 nM (active)
- GI50 (SNB-19): < 10 nM (active)

Structure (SMILES): Cc1[nH]n(C2=NCCN2)c(=O)c1Cc1ccccc1
- GI50 (U-251): > 100000 nM (inactive)
- GI50 (NCI-H460): > 100000 nM (inactive)
- GI50 (A498): > 100000 nM (inactive)
- GI50 (SK-MEL-5): > 100000 nM (inactive)
- GI50 (HL-60): > 100000 nM (inactive)
- GI50 (HOP-92): > 100000 nM (inactive)
- GI50 (MDA-MB-435): > 100000 nM (inactive)
- GI50 (OVCAR-5): > 100000 nM (inactive)
- GI50 (T47D): > 100000 nM (inactive)
- GI50 (HCT-15): > 100000 nM
- GI50 (SW-620): > 100000 nM (inactive)
- GI50 (SF-268): > 100000 nM (inactive)
- GI50 (CCRF-CEM): > 100000 nM (inactive)
- GI50 (UACC-257): > 100000 nM (inactive)
- GI50 (PC-3): > 100000 nM (inactive)
- GI50 (OVCAR-4): > 100000 nM (inactive)
- GI50 (IGROV-1): > 100000 nM (inactive)
- GI50 (MDA-N): > 100000 nM (inactive)
- GI50 (NCI-H226): > 100000 nM (inactive)
- GI50 (LOX IMVI): > 100000 nM (inactive)
- GI50 (HT-29): > 100000 nM (inactive)
- GI50 (NCI/ADR-RES): > 100000 nM (inactive)
- GI50 (KM12): > 100000 nM (inactive)
- GI50 (MCF7): > 100000 nM (inactive)
- GI50 (HOP-62): > 100000 nM (inactive)
- GI50 (ACHN): > 100000 nM (inactive)
- GI50 (UACC-62): > 100000 nM (inactive)
- GI50 (BT-549): > 100000 nM (inactive)
- GI50 (Hs-578T): > 100000 nM (inactive)
- GI50 (COLO 205): > 100000 nM (inactive)
- GI50 (OVCAR-8): > 100000 nM (inactive)
- GI50 (786-0): > 100000 nM (inactive)
- GI50 (Malme-3M): > 100000 nM (inactive)
- GI50 (UO-31): > 100000 nM (inactive)
- GI50 (NCI-H522): > 100000 nM (inactive)
- GI50 (K562): > 100000 nM (inactive)
- GI50 (SR): > 100000 nM (inactive)
- GI50 (EKVX): > 100000 nM (inactive)
- GI50 (RPMI-8226): > 100000 nM (inactive)
- GI50 (M14): > 100000 nM (inactive)
- GI50 (A549): > 100000 nM (inactive)
- GI50 (HCT-116): > 100000 nM (inactive)
- GI50 (SK-OV-3): > 100000 nM (inactive)
- GI50 (CAKI-1): > 100000 nM (inactive)
- GI50 (NCI-H23): > 100000 nM (inactive)
- GI50 (MOLT-4): > 100000 nM (inactive)
- GI50 (SF-539): > 100000 nM (inactive)
- GI50 (MDA-MB-231): > 100000 nM (inactive)
- GI50 (OVCAR-3): > 100000 nM (inactive)
- GI50 (SF-295): > 100000 nM (inactive)
- GI50 (RXF 393): > 100000 nM (inactive)
- GI50 (SK-MEL-2): > 100000 nM (inactive)
- GI50 (TK-10): > 100000 nM (inactive)
- GI50 (SNB-19): > 100000 nM (inactive)

Structure (SMILES): O=C1CC(c2cccc(F)c2)Nc2cc3c(cc21)OCO3 (stereo not given)
- GI50 (U-251): 34.4 nM (active)
- GI50 (NCI-H460): 41.8 nM (active)
- GI50 (A498): < 10 nM (active)
- GI50 (SK-MEL-5): 22.4 nM (active)
- GI50 (HOP-92): 531 nM (active)
- GI50 (MDA-MB-435): 13.6 nM (active)
- GI50 (OVCAR-5): 54 nM (active)
- GI50 (T47D): > 100000 nM (inactive)
- GI50 (HCT-15): 39.4 nM
- GI50 (SW-620): 39.3 nM (active)
- GI50 (SF-268): 91.4 nM (active)
- GI50 (CCRF-CEM): 33 nM (active)
- GI50 (UACC-257): 63.8 nM (active)
- GI50 (PC-3): 30.1 nM (active)
- GI50 (OVCAR-4): 1800 nM (inactive)
- GI50 (IGROV-1): 48.3 nM (active)
- GI50 (MDA-N): 11.3 nM (active)
- GI50 (NCI-H226): 27 nM (active)
- GI50 (LOX IMVI): 63.1 nM (active)
- GI50 (HT-29): 23.7 nM (active)
- GI50 (NCI/ADR-RES): 27 nM (active)
- GI50 (KM12): 46.3 nM (active)
- GI50 (MCF7): 47.2 nM (active)
- GI50 (HOP-62): 7380 nM (inactive)
- GI50 (ACHN): 64.9 nM (active)
- GI50 (UACC-62): 54.3 nM (active)
- GI50 (BT-549): > 10000 nM (inactive)
- GI50 (Hs-578T): < 10 nM (active)
- GI50 (COLO 205): 29.2 nM (active)
- GI50 (OVCAR-8): 56.8 nM (active)
- GI50 (786-0): 46.8 nM (active)
- GI50 (Malme-3M): 32.7 nM (active)
- GI50 (UO-31): 42.2 nM (active)
- GI50 (NCI-H522): 20.8 nM (active)
- GI50 (K562): < 10 nM (active)
- GI50 (EKVX): < 10 nM (active)
- GI50 (RPMI-8226): < 10 nM (active)
- GI50 (M14): 26.7 nM (active)
- GI50 (DU-145): 38.5 nM (active)
- GI50 (A549): 36.3 nM (active)
- GI50 (HCT-116): 53.3 nM (active)
- GI50 (SN12C): 50.9 nM (active)
- GI50 (HCC 2998): 59.3 nM (active)
- GI50 (SK-OV-3): 95.5 nM (active)
- GI50 (CAKI-1): 51 nM (active)
- GI50 (NCI-H23): 33.5 nM (active)
- GI50 (MOLT-4): < 10 nM (active)
- GI50 (SF-539): 29.3 nM (active)
- GI50 (MDA-MB-231): 149 nM (active)
- GI50 (OVCAR-3): 52.1 nM (active)
- GI50 (SF-295): 42 nM (active)
- GI50 (RXF 393): 24.7 nM (active)
- GI50 (SK-MEL-2): 35.6 nM (active)
- GI50 (TK-10): 1130 nM (inactive)
- GI50 (SNB-19): 36.5 nM (active)
